From patent US8815503B2, “Compositions and methods for immunostimulatory RNA oligonucleotides” (Rheinische Friedrich-Wilhelms-Universitat Bonn, priority 2005, dated 2014)

system: PBMC; experiment: 193 ssRNA 4mer-motif library screen: IL-12 (IL-12p40) production in PBMC of six donors, poly-L-Arg complexation, ELISA at 44 hours, IL-12 index and adjusted IL-12 index; type: cell-based, human; set-up: key to Adjusted IL-12 index Mean: IL-12 index (ratio to 9.2sense) minus donor mean, averaged over 6 donors; settings: 193 ssRNA oligonucleotide library; data from six individual donors summarized; ascending order
Method: FIG. 9: PBMC of six different healthy donors were isolated and stimulated with poly-L-arginine complexed ssRNA oligonucleotides in duplicates. 44 hours after stimulation IL-12p40 production was assessed in supernatant via ELISA. For all tested ssRNA oligonucleotides (table 3), the mean values of the measured duplicates were normalized to the positive control ssRNA oligonucleotide 9.2sense (5′-AGCUUAACCUGUCCUUCAA (SEQ ID NO: 194)) by dividing the mean value of tested oligonucleotide by the mean value of 9.2sense (=IL-12 index of a given oligonucleotide). Next, all individual IL-12 indices were adjusted to the mean value of all IL-12 indices by subtracting the mean value of all IL-12 indices from the individual IL-12 index of a given oligonucleotide (=adjusted IL-12 index). Data from six individual donors were summarized and were assorted in ascending order displaying the corresponding SEM (for a complete listing including numerical data see table 4). FIG. 9A discloses SEQ ID NOS 460-509, respectively, in order of appearance. FIG. 9B discloses SEQ ID NOS 510-559, respectively, in order of appearance. FIG. 9C discloses SEQ ID NOS 560-609, respectively, in order of appearance. FIG. 9D discloses SEQ ID NOS 610-652, respectively, in order of appearance.
All 193 ssRNA oligonucleotides were tested on PBMC of six individual healthy donors using poly-L-Arg for complexation. At 44 hours after stimulation with RNA oligonucleotides, supernatants were collected and IL-12 production was measured by ELISA. Prior to statistical analysis the raw data were processed as follows: for each cell culture plate the mean IL-12 value of the experimental duplicates for each tested ssRNA oligonucleotide were normalized to the ssRNA oligonucleotide RNA9.2sense (5′-AGCUUAACCUGUCCUUCAA-3′ (SEQ ID NO: 194)). This standard RNA oligonucleotide was included as a positive control on all cell culture plates. Normalization was performed by calculating the ratio of IL-12 induced by the tested oligonucleotide and IL-12 induced by the standard oligonucleotide RNA9.2sense. Thus, for each tested oligonucleotide in an individual donor a mean ratio of IL-12 induction was obtained. In the following, this mean of the ratios is referred to as IL-12 index (one value of IL-12 index per donor). […] The corresponding IL-12 index of oligonucleotide ANP175 for donor 3 was calculated to be 1.90 (=1725 pg/ml divided by 908 pg/ml).
Next, the means of all IL-12 indices for every individual donor were calculated. Then the adjusted IL-12 indices were calculated as IL-12 index minus the mean of all IL-12 indices of one individual donor. […] The adjusted IL-12 index of ANP175 was calculated: 1.90 minus 0.44=1.46. The adjusted IL-12 indices from all six donors were summarized by calculating the means and the corresponding standard error of mean. The data are depicted in ascending order (FIG. 9A, B, C, D). The adjusted IL-12 indices of the top thirty ssRNA oligonucleotides of all six donors were compared using a two-tailed Student's t-test (FIG. 10). For most combinations tested, a significant difference was observed when the interval between the analyzed pairs was at least eight or nine places in the assortment.

| Sequence | Adjusted IL-12 index Mean |
| --- | --- |
| AAAAAAACGUUAAAAAAAA (RNA, backbone not given here) [ANP-Oligo 085] | 0.57 |
| AAAAAAACUACAAAAAAAA (RNA, backbone not given here) [ANP-Oligo 086] | −0.46 |
| AAAAAAACUAGAAAAAAAA (RNA, backbone not given here) [ANP-Oligo 087] | −0.03 |
| AAAAAAACUAUAAAAAAAA (RNA, backbone not given here) [ANP-Oligo 088] | 0.3 |
| AAAAAAACUCCAAAAAAAA (RNA, backbone not given here) [ANP-Oligo 089] | −0.42 |
| AAAAAAACUCGAAAAAAAA (RNA, backbone not given here) [ANP-Oligo 090] | −0.54 |
| AAAAAAACUCUAAAAAAAA (RNA, backbone not given here) [ANP-Oligo 091] | −0.33 |
| AAAAAAACUGCAAAAAAAA (RNA, backbone not given here) [ANP-Oligo 092] | 0 |
| AAAAAAACUGGAAAAAAAA (RNA, backbone not given here) [ANP-Oligo 093] | −0.31 |
| AAAAAAACUGUAAAAAAAA (RNA, backbone not given here) [ANP-Oligo 094] | 0.9 |
| AAAAAAACUUCAAAAAAAA (RNA, backbone not given here) [ANP-Oligo 095] | −0.39 |
| AAAAAAACUUGAAAAAAAA (RNA, backbone not given here) [ANP-Oligo 096] | −0.14 |
| AAAAAAACUUUAAAAAAAA (RNA, backbone not given here) [ANP-Oligo 097] | −0.1 |
| AAAAAAAGAACAAAAAAAA (RNA, backbone not given here) [ANP-Oligo 098] | −0.6 |
| AAAAAAAGAAGAAAAAAAA (RNA, backbone not given here) [ANP-Oligo 099] | −0.61 |
| AAAAAAAGAAUAAAAAAAA (RNA, backbone not given here) [ANP-Oligo 100] | 0.01 |
| AAAAAAAGACCAAAAAAAA (RNA, backbone not given here) [ANP-Oligo 101] | −0.6 |
| AAAAAAAGACGAAAAAAAA (RNA, backbone not given here) [ANP-Oligo 102] | −0.64 |
| AAAAAAAGACUAAAAAAAA (RNA, backbone not given here) [ANP-Oligo 103] | −0.25 |
| AAAAAAAGAGCAAAAAAAA (RNA, backbone not given here) [ANP-Oligo 104] | −0.61 |
| AAAAAAAGAGGAAAAAAAA (RNA, backbone not given here) [ANP-Oligo 105] | −0.62 |
| AAAAAAAGAGUAAAAAAAA (RNA, backbone not given here) [ANP-Oligo 106] | 0.21 |
| AAAAAAAGAUCAAAAAAAA (RNA, backbone not given here) [ANP-Oligo 107] | −0.2 |
| AAAAAAAGAUGAAAAAAAA (RNA, backbone not given here) [ANP-Oligo 108] | 0.08 |
| AAAAAAAGAUUAAAAAAAA (RNA, backbone not given here) [ANP-Oligo 109] | 0.22 |
| AAAAAAAGCACAAAAAAAA (RNA, backbone not given here) [ANP-Oligo 110] | −0.58 |
| AAAAAAAGCAGAAAAAAAA (RNA, backbone not given here) [ANP-Oligo 111] | −0.32 |
| AAAAAAAGCAUAAAAAAAA (RNA, backbone not given here) [ANP-Oligo 112] | 0.08 |
| AAAAAAAGCCCAAAAAAAA (RNA, backbone not given here) [ANP-Oligo 113] | −0.54 |
| AAAAAAAGCCGAAAAAAAA (RNA, backbone not given here) [ANP-Oligo 114] | −0.58 |
